Data set [1] has as its system hapten (TNBS)-induced colitis.
Procedure: Animals: Male Sprague-Dawley rats (approximately 150 g bw) received food and water ad libitum. They were kept in plastic cages with wire tops in a light-controlled room.
High-dose dietary selenium supplementation: Rats received food and (unsupplemented) water ad libitum (control group). Normal selenium (control) diet included 0.2 mg selenium/kg chow. […] The high-selenium diet provided approximately 2-3 μ/gm day of selenium per animal, which is considered an acceptable excess supplementation diet for this element (Davis et al., 1998; Shilo et al., 2003).
Induction of colitis and sample collection: Colitis was induced by administration of 0.5 ml of 2,4,6-trinitrobenzene sulphonic acid (TNBS, 100 mg/ml dissolved in 50% ethanol)through the anal canal, at a distance of 8 cm into the colon, just proximal to the splenic flexure. 24 hours after induction animals were sacrificed and the colon was removed for pathology, histocytological, biochemical or immunohistocytological analysis (Reifen et al., 2000).
The next data set concerns cytochrome c mRNA. The data set can be described thus: Cytochrome c mRNA in colon tissue (RT-PCR). In kind it is in vivo, rat. The note with it: 24 h after TNBS; supplemented (FIG. 7A lane 4).
The next data set deals with UCP2. The data set can be described thus: UCP2 transcription and expression (RTPCR, Western blot). It counts as cell-based, murine. As to the method:
(§1) Cell culture: Murine J774.2 macrophages (kindly provided by Prof. Dov Zipori from the Weizmann Institute of Science) were grown in RPMI medium supplemented with 10% (w/v) fetal calf serum, penicillin (100 U/ml), streptomycin (100 μg/ml) and 1× glutamine at 37° C. in a humidified atmosphere consisting of 95% air and 5% CO2. Experiments were performed on cells at 60% confluence.
Western blots (Sp1, MnSOD, UCP2): Cells were grown in six-well tissue culture plates, treated with selenium for 72 h and activated with LPS and IFN-γ for 24 h. The wells were washed with PBS, scraped and centrifuged
(5 min. 2000 RPM), and lysed by addition of boiling hot lysis buffer (1% SDS, 1 mM sodium ortho-vanadate, 10 mM Tris pH 7.4) to the pellets. Protein content was measured (BIO RAD protein assay kit) and equalized. Sample buffer (containg SDS) was added and the samples were boiled. The samples were subjected to SDS-PAGE followed by western blot analysis. Separated proteins were transferred electrophoretically from the gel to a nitrocellulose membrane (Amersham International plc, Buckinghamshire, ENGLAND). The membrane was blocked in TBS (0.15 M NaCl/10 mM Tris/HCl, pH7.4) containing 5% (v/v) skimmed milk (Blotto), then incubated over night with primary antibodies at RT (diluted 1/2000 in blotto). After being washed six times in TBST [TBS containing 0.05% (v/v) Tween 20], the membrane was incubated for 2 h at room temperature with secondary antibody (diluted 1/5000 in blotto). Immunoreactive bands were detected with ECL western blotting detection reagents (Amersham Pharmacia Biotech, Buckingammshire England) and developed on film (Fuji super RX, Dusseldorf, Germany). Primary antibodies for Sp1 and MnSOD were from BD Transduction Laboratories (Becton Dickenson and Co., San Jose, Calif. USA) and for UCP2 from Alpha Diagnostics LTD (Warszaw, Poland). Secondary antibodies were from Jackson ImmunoResearch (Jackson Labs, Bar Harbor, Maine, USA).
Reverse transcriptase-PCR (RTPCR): Total RNA was prepared and isolated by the Tri-Reagent method according to the manufacturer's protocol (Sigma, St. Louis Mo., USA). Total RNA (1 μg) was converted into cDNA using Reverse-iT first strand synthesis kit (Abgene, UK). Amplification of MnSOD and UCP2 sequences was performed by incubating 10 ng equivalents of DNA with the following oligonucleotide primers:
Left (sense), 5′-[…]-3′ (SEQ ID NO:7) corresponding to nucleotides 372 to 392 of mouse mRNA (GenBank Accession No. NM 011671).
Right (antisense) 5′[…]-3′ (SEQ ID NO: 8) corresponding to nucleotides 826 to 846 of mouse mRNA (GenBank Accession No. NM 011671). The expected PCR product was 474 bp. Actual PCR product was approximately 474 bp, measured on 1.25% agarose gel in TAE containing ethidium bromide.
PCR was performed with 28 cycles (25 cycles for GAPDH) of 30 seconds at 96° C., 30 seconds at 58° C. and 1 min at 72° C. RTPCR products were analyzed on 1.3% (w/v) agarose gels.

In a further data set the test system is lipid peroxidation (MDA). The data set is described as follows: Lipid peroxidation: MDA levels in colon tissue (HPLC). In kind it is in vivo, rat. The note with it: colitis-induced and uninduced rats, selenium supplemented group; data not presented. Here is the method: Lipid peroxidation—MDA levels: MDA levels in the colon tissue were determined as an indicator of lipid peroxidation using HPLC methodology (Valacchi et al., 2000). Briefly, tissue sections (100 mg) were homogenized in 1% Triton X 100 PBS. The suspended tissue was diluted 1:1 with 1% SDS solution and incubated with 250 ul TBA reagent (0.375 g TBA/100 ml) and 200 ul phosphoric acid (1.22 M) for 30 min at 100° C. Methanol ([…]) was added for protein precipitation and NaOH (20 ml, 1N) added for pH neutralization. After centrifugation, 100 ul clear supernatant was injected into a HPLC system, using a C185 m, 250 mm^a 4.6 mm internal diameter, reversed phase column (Alltech, Deerfield, Ill., USA). The mobile phase consisted of 60% methanol and 40% 50 mM NaH2PO4, pH 5.5. The flow rate was 0.9 ml/min and the detector was set to 532 nm. HPLC colarray ESA was used.

The subject of the next data set is NF-κB. The data set is described as follows: NF-κB binding activity of nuclear extracts of treated macrophages (EMSA). In kind it is cell-based, murine. Here is the method: as §1
Nuclear extracts: Nuclear Extracts were prepared using a slight modification of the method of Dignam et al (23). Treated cells were washed with cold PBS, scraped and centrifuged. Hypotonic buffer (1 ml, 20 mM HEPES pH 7.0, 10 mM KCl, 1 mM mGCl2, 0.5 mM DTT, 0.1% Triton X-100, 20% glycerol, 2 mM PMSP, 1 mg/ml Aprotonin and Leupeptin) was added to the cell pellets, the pellets were disrupted by pipetting, and centrifuged 3000 RPM for 5 min. The pellets were re-suspended in 100 μl cold extraction buffer (20 mM HEPES pH 7.0, 10 mM KCl, 1 mM mGCl2, 0.5 mM DTT, 0.1% Triton X-100, 20% glycerol, 2 mM PMSF, 1 mg/ml Aprotonin and Leupeptin, 420 mM NaCl). The samples were rotated for 20 min at 4° C., centrifuged 15,000 RPM for 10 min, and supernatants collected. Protein content was measured using Bradford reagent. Samples were stored frozen at minus 70° C.
Electromobility shift assay (EMSA)—Gel shift assays were performed according to the gel shift assay protocol from Promega Corp. (San Luis Obispo, Calif.). A 22-mer double-stranded NF-κB consensus oligonucleotide 5′-[…]-3′ (SEQ ID NO:3), and Sp1 consensus oligonucleotide 5′-[…]-3(SEQ ID NO:4), were labeled with 32P. For each reaction, 2 μg of nuclear extract were incubated with 2 μl of 5× binding buffer for 5 min., 1 μl of the ^32P-labeled oligonucleotide was added at room temperature for 20 min., the samples were prepared by adding 1 μl of dye free loading buffer, and separated using 6% non-denaturing acrylamide gel electrophoresis. The gel was dried and exposed to a phosphoimaging screen for 18 hours and then visualized with a phosphoimager. For specificity, 1 μl of unlabeled consensus oligonucleotide was used to compete with the labeled probe.
For orientation: In EMSA bound probe runs differently from free probe, usually more slowly.

This is an account of results in patent publication US20070026090A1, “Treatment and prevention of inflammatory disease and mitochondrial dysfunction with high dose selenium” (priority 2003, published 2007).

For the molecule `[Se]` [selenium], the “necrosis, share of the colon (gross pathology)” value in data set [1] (24 h after TNBS, 3 weeks high-dose supplementation, unsupplemented rat more than 80%) is reported as “less than 15%”. Further, the “effects on colon tissue of healthy, uninduced rats (gross pathology)” value in data set [1] (rat, in vivo) is on record as “no apparent effects”. Moreover, the “effect of TNBS-induced colitis on cytochrome c mRNA levels” value in the data set with cytochrome c mRNA is on record as “completely prevented”. The “UCP2 transcripts and protein” value with UCP2 (24 or 72 hours, concentration dependent, to a lesser extent than MnSOD) was “reduced the abundance”. In the data set on UCP2 (exposure (72 hours) prior to activation, concentration dependent (FIG. 11)), the “UCP2 expression, activated macrophages” value is reported as “decreased”. Besides, in the data set on lipid peroxidation (MDA), the “colon tissue lipid peroxidation (MDA content)” value is recorded as “no changes”. Besides, the “NF-κB translocation, resting unactivated macrophages” value in the data set on NF-κB (0.5-5 μM, 72 hours (FIG. 12A)) is given as “no effect”. Also, in the data set with NF-κB (72 hours, then 6 hours LPS + INFγ, range 0.5-5 μM (FIG. 12A)), the “lowest concentration with dramatic effect on NF-κB translocation, activated macrophages” value turned out to be 0.5 µM. The “nuclear import of NF-κB, activated macrophages” value in the data set with NF-κB (concentration-dependent (FIG. 12A)) is on record as “dramatically reduced”.
